In brackets after ≈: the same amount, converted by molar mass.

Holding throughout (assay type): cell-based
One assay has as its system E. coli MP-4. The experiment in a line: Broth dilution MIC determination (CLSI), E. coli MP-4. The settings on record: Escherichia coli, MP4; strain MP-4, broth dilution; read-out: MIC E. coli MP-4.
The next assay deals with K. pneumoniae MP-546. The experiment in a line: Broth dilution MIC determination (CLSI), K. pneumoniae MP-546. The settings on record: Klebsiella pneumoniae, MP546; strain MP-546, broth dilution. (In general: Dilution methods test growth across graded concentrations, often in twofold steps.)
The test system of the next assay is P. aeruginosa MP-3. The experiment in a line: Broth dilution MIC determination (CLSI), P. aeruginosa MP-3. The settings on record: Pseudomonas aeruginosa, MP3; strain MP-3, broth dilution.
A further assay relates to A. baumannii MP-15. Put plainly: Broth dilution MIC determination (CLSI), A. baumannii MP-15. The settings on record: Acinetobacter baumannii, MP15; strain MP-15, broth dilution; read-out: MIC A. baumanii MP-15.
The next assay deals with S. aureus MP-12. Put plainly: Broth dilution MIC determination (CLSI), S. aureus MP-12. As to conditions: Staphylococcus aureus, MP12; strain MP-12, broth dilution.

The term MIC denotes the smallest concentration in the dilution series that meets the test's criterion for growth inhibition. For the compound `CO[C@]1(C)C[C@@H](C)CN(C)[C@@H](C2CCN(C)CC2)COC(=O)C(C)(C)C(=O)[C@H](C)[C@H]1O[C@@H]1O[C@H](C)C[C@H](N(C)C)[C@H]1O` [Compound 64, (3S,6R,8R,9R,10R)-9-(((2S,3R,4S,6R)-4-(dimethylamino)-3-hydroxy-6-methyltetrahydro-2H-pyran-2-yl)oxy)-8-methoxy-4,6,8,10,12,12-hexamethyl-3-(1-methylpiperidin-4-yl)-1-oxa-4-azacyclotridecane-11,13-dione], the MIC is under 4 µg/mL in the assay with E. coli MP-4; under 4 µg/mL in the assay on K. pneumoniae MP-546; over 32 µg/mL against P. aeruginosa MP-3; over 32 µg/mL with A. baumannii MP-15; 4 to 32 µg/mL (≈ 6.69 to 53.5 µM) against S. aureus MP-12.

As to `CO[C@]1(C)C[C@@H](C)CN(C)[C@H]([C@@H]2CCCN2)COC(=O)C(C)(C)C(=O)[C@H](C)[C@H]1O[C@@H]1O[C@H](C)C[C@H](N(C)C)[C@H]1O` [Compound 65, (3R,6R,8R,9R,10R)-9-(((2S,3R,4S,6R)-4-(dimethylamino)-3-hydroxy-6-methyltetrahydro-2H-pyran-2-yl)oxy)-8-methoxy-4,6,8,10,12,12-hexamethyl-3-((S)-pyrrolidin-2-yl)-1-oxa-4-azacyclotridecane-11,13-dione], the MIC in the assay with E. coli MP-4 was 4 to 32 µg/mL (≈ 7.02 to 56.2 µM); in the assay with K. pneumoniae MP-546, over 32 µg/mL; against P. aeruginosa MP-3, over 32 µg/mL; in the assay with A. baumannii MP-15 it was over 32 µg/mL; against S. aureus MP-12, over 32 µg/mL.

Take `CO[C@]1(C)C[C@@H](C)CN(C)[C@H](C2CCN(C(=O)CNCC(C)C)CC2)COC(=O)C(C)(C)C(=O)[C@H](C)[C@H]1O[C@@H]1O[C@H](C)C[C@H](N(C)C)[C@H]1O` [Compound 66, (3R,6R,8R,9R,10R)-9-(((2S,3R,4S,6R)-4-(dimethylamino)-3-hydroxy-6-methyltetrahydro-2H-pyran-2-yl)oxy)-3-(1-(isobutylglycyl)piperidin-4-yl)-8-methoxy-4,6,8,10,12,12-hexamethyl-1-oxa-4-azacyclotridecane-11,13-dione]: the MIC in the assay on E. coli MP-4 was under 4 µg/mL; against K. pneumoniae MP-546, 4 to 32 µg/mL (≈ 5.74 to 45.9 µM); in the assay on P. aeruginosa MP-3, over 32 µg/mL; with A. baumannii MP-15 it was over 32 µg/mL; against S. aureus MP-12 it was over 32 µg/mL.

As to `CO[C@]1(C)C[C@@H](C)CN(C)[C@@H]([C@H]2CCN(C(=O)CN(C)C)C2)COC(=O)C(C)(C)C(=O)[C@H](C)[C@H]1O[C@@H]1O[C@H](C)C[C@H](N(C)C)[C@H]1O` [Compound 67, (3S,6R,8R,9R,10R)-9-(((2S,3R,4S,6R)-4-(dimethylamino)-3-hydroxy-6-methyltetrahydro-2H-pyran-2-yl)oxy)-3-((S)-1-(dimethylglycyl)pyrrolidin-3-yl)-8-methoxy-4,6,8,10,12,12-hexamethyl-1-oxa-4-azacyclotridecane-11,13-dione], the MIC in the assay on E. coli MP-4 is under 4 µg/mL; with K. pneumoniae MP-546, 4 to 32 µg/mL (≈ 6.11 to 48.9 µM); against P. aeruginosa MP-3, over 32 µg/mL; with A. baumannii MP-15, over 32 µg/mL; against S. aureus MP-12 it was over 32 µg/mL.

Consider `CCCN1C[C@H](C)C[C@@](C)(OC)[C@H](O[C@@H]2O[C@H](C)C[C@H](N(C)C)[C@H]2O)[C@@H](C)C(=O)C(C)(C)C(=O)OC[C@H]1C1CN(C(=O)CN(C)C)C1` [Compound 68, (3R,6R,8R,9R,10R)-9-(((2S,3R,4S,6R)-4-(dimethylamino)-3-hydroxy-6-methyltetrahydro-2H-pyran-2-yl)oxy)-3-(1-(dimethylglycyl)azetidin-3-yl)-8-methoxy-6,8,10,12,12-pentamethyl-4-propyl-1-oxa-4-azacyclotridecane-11,13-dione], for which the MIC is under 4 µg/mL in the assay on E. coli MP-4; 4 to 32 µg/mL (≈ 5.98 to 47.8 µM) in the assay with K. pneumoniae MP-546; over 32 µg/mL in the assay on P. aeruginosa MP-3; over 32 µg/mL with A. baumannii MP-15; 4 to 32 µg/mL (≈ 5.98 to 47.8 µM) against S. aureus MP-12.

`CCN1C[C@H](C)C[C@@](C)(OC)[C@H](O[C@@H]2O[C@H](C)C[C@H](N(C)C)[C@H]2O)[C@@H](C)C(=O)C(C)(C)C(=O)OC[C@H]1C1CN(CC(C)C)C1` [Compound 70, (3R,6R,8R,9R,10R)-9-(((2S,3R,4S,6R)-4-(dimethylamino)-3-hydroxy-6-methyltetrahydro-2H-pyran-2-yl)oxy)-4-ethyl-3-(1-isobutylazetidin-3-yl)-8-methoxy-6,8,10,12,12-pentamethyl-1-oxa-4-azacyclotridecane-11,13-dione]: the MIC in the assay on E. coli MP-4 is under 4 µg/mL; with K. pneumoniae MP-546, 4 to 32 µg/mL (≈ 6.39 to 51.1 µM); against P. aeruginosa MP-3, over 32 µg/mL; in the assay on A. baumannii MP-15, over 32 µg/mL; in the assay with S. aureus MP-12, 4 to 32 µg/mL (≈ 6.39 to 51.1 µM).

With `CO[C@]1(C)C[C@@H](C)CN(C)[C@H](C2CN(C3CCCCC3)C2)COC(=O)C(C)(C)C(=O)[C@H](C)[C@H]1O[C@@H]1O[C@H](C)C[C@H](N(C)C)[C@H]1O` [Compound 73, (3R,6R,8R,9R,10R)-3-(1-cyclohexylazetidin-3-yl)-9-(((2S,3R,4S,6R)-4-(dimethylamino)-3-hydroxy-6-methyltetrahydro-2H-pyran-2-yl)oxy)-8-methoxy-4,6,8,10,12,12-hexamethyl-1-oxa-4-azacyclotridecane-11,13-dione], the MIC in the assay on E. coli MP-4 is 4 to 32 µg/mL (≈ 6.27 to 50.2 µM); with K. pneumoniae MP-546, under 4 µg/mL; against P. aeruginosa MP-3 it was over 32 µg/mL; with A. baumannii MP-15 it was 4 to 32 µg/mL (≈ 6.27 to 50.2 µM); in the assay with S. aureus MP-12 it was 4 to 32 µg/mL (≈ 6.27 to 50.2 µM).

As for `CCN(CC)[C@H](C)C(=O)N1CC([C@H]2COC(=O)C(C)(C)C(=O)[C@H](C)[C@@H](O[C@@H]3O[C@H](C)C[C@H](N(C)C)[C@H]3O)[C@](C)(OC)C[C@@H](C)CN2C)C1` [Compound 74, (3S,6R,8R,9R,10R)-3-(1-(diethyl-D-alanyl)azetidin-3-yl)-9-(((2S,3R,4S,6R)-4-(dimethylamino)-3-hydroxy-6-methyltetrahydro-2H-pyran-2-yl)oxy)-8-methoxy-4,6,8,10,12,12-hexamethyl-1-oxa-4-azacyclotridecane-11,13-dione], the minimum inhibitory concentration (MIC) is under 4 µg/mL with E. coli MP-4; 4 to 32 µg/mL (≈ 5.86 to 46.9 µM) in the assay on K. pneumoniae MP-546; over 32 µg/mL against P. aeruginosa MP-3; over 32 µg/mL in the assay with A. baumannii MP-15; over 32 µg/mL in the assay with S. aureus MP-12.

`CCCN1CC([C@@H]2COC(=O)C(C)(C)C(=O)[C@H](C)[C@@H](O[C@@H]3O[C@H](C)C[C@H](N(C)C)[C@H]3O)[C@](C)(OC)C[C@@H](C)CN2C)C1` [Compound 76, (3R,6R,8R,9R,10R)-9-(((2S,3R,4S,6R)-4-(dimethylamino)-3-hydroxy-6-methyltetrahydro-2H-pyran-2-yl)oxy)-8-methoxy-4,6,8,10,12,12-hexamethyl-3-(1-propylazetidin-3-yl)-1-oxa-4-azacyclotridecane-11,13-dione]: the minimum inhibitory concentration (MIC) was under 4 µg/mL in the assay on E. coli MP-4; under 4 µg/mL in the assay with K. pneumoniae MP-546; over 32 µg/mL against P. aeruginosa MP-3; over 32 µg/mL in the assay with A. baumannii MP-15; 4 to 32 µg/mL (≈ 6.69 to 53.5 µM) against S. aureus MP-12.

Turning to `CO[C@]1(C)C[C@@H](C)CN(C)[C@H]([C@@H]2CCCNC2)COC(=O)C(C)(C)C(=O)[C@H](C)[C@H]1O[C@@H]1O[C@H](C)C[C@H](N(C)C)[C@H]1O` [Compound 77], the MIC is 4 to 32 µg/mL (≈ 6.85 to 54.8 µM) in the assay with E. coli MP-4; 4 to 32 µg/mL (≈ 6.85 to 54.8 µM) in the assay with K. pneumoniae MP-546; over 32 µg/mL with P. aeruginosa MP-3; over 32 µg/mL in the assay on A. baumannii MP-15; over 32 µg/mL with S. aureus MP-12.

In the case of `CCCN1C2CCC1CC([C@@H]1COC(=O)C(C)(C)C(=O)[C@H](C)[C@@H](O[C@@H]3O[C@H](C)C[C@H](N(C)C)[C@H]3O)[C@](C)(OC)C[C@@H](C)CN1C)C2` (stereo partly drawn) [Compound 79, (3R,6R,8R,9R,10R)-9-(((2S,3R,4S,6R)-4-(dimethylamino)-3-hydroxy-6-methyltetrahydro-2H-pyran-2-yl)oxy)-8-methoxy-4,6,8,10,12,12-hexamethyl-3-(8-propyl-8-azabicyclo[3.2.1]octan-3-yl)-1-oxa-4-azacyclotridecane-11,13-dione], the MIC is under 4 µg/mL with E. coli MP-4; 4 to 32 µg/mL (≈ 6.14 to 49.1 µM) against K. pneumoniae MP-546; over 32 µg/mL in the assay on P. aeruginosa MP-3; over 32 µg/mL in the assay with A. baumannii MP-15; under 4 µg/mL in the assay on S. aureus MP-12.

Regarding `CO[C@]1(C)C[C@@H](C)CN(C)[C@H](C2CCNCC2)COC(=O)C(C)(C)C(=O)[C@H](C)[C@H]1O[C@@H]1O[C@H](C)C[C@H](N(C)C)[C@H]1O` [Compound 80, (3R,6R,8R,9R,10R)-9-(((2S,3R,4S,6R)-4-(dimethylamino)-3-hydroxy-6-methyltetrahydro-2H-pyran-2-yl)oxy)-8-methoxy-4,6,8,10,12,12-hexamethyl-3-(piperidin-4-yl)-1-oxa-4-azacyclotridecane-11,13-dione], the minimal inhibitory concentration (MIC) is under 4 µg/mL in the assay on E. coli MP-4; 4 to 32 µg/mL (≈ 6.85 to 54.8 µM) against K. pneumoniae MP-546; over 32 µg/mL against P. aeruginosa MP-3; over 32 µg/mL with A. baumannii MP-15; 4 to 32 µg/mL (≈ 6.85 to 54.8 µM) in the assay on S. aureus MP-12.

Take `CO[C@]1(C)C[C@@H](C)CN(C)[C@@H](C2CN(CC(C)C)C2)COC(=O)C(C)(C)C(=O)[C@H](C)[C@H]1O[C@@H]1O[C@H](C)C[C@H](N(C)C)[C@H]1O` [Compound 81, (3S,6R,8R,9R,10R)-9-(((2S,3R,4S,6R)-4-(dimethylamino)-3-hydroxy-6-methyltetrahydro-2H-pyran-2-yl)oxy)-3-(1-isobutylazetidin-3-yl)-8-methoxy-4,6,8,10,12,12-hexamethyl-1-oxa-4-azacyclotridecane-11,13-dione]: the MIC in the assay on E. coli MP-4 is under 4 µg/mL; in the assay on K. pneumoniae MP-546, 4 to 32 µg/mL (≈ 6.54 to 52.3 µM); in the assay on P. aeruginosa MP-3 it was over 32 µg/mL; in the assay with A. baumannii MP-15, over 32 µg/mL; against S. aureus MP-12, over 32 µg/mL.

On to `CO[C@]1(C)C[C@@H](C)CN(C)[C@@H]([C@H]2CC[C@H](N(C)C(=O)CN(C)C)CC2)COC(=O)C(C)(C)C(=O)[C@H](C)[C@H]1O[C@@H]1O[C@H](C)C[C@H](N(C)C)[C@H]1O` [Compound 82, 2-(dimethylamino)-N-((1S,4r)-4-((3S,6R,8R,9R,10R)-9-(((2S,3R,4S,6R)-4-(dimethylamino)-3-hydroxy-6-methyltetrahydro-2H-pyran-2-yl)oxy)-8-methoxy-4,6,8,10,12,12-hexamethyl-11,13-dioxo-1-oxa-4-azacyclotridecan-3-yl)cyclohexyl)-N-methylacetamide], for which the minimal inhibitory concentration (MIC) with E. coli MP-4, against K. pneumoniae MP-546, against P. aeruginosa MP-3, with A. baumannii MP-15 and in the assay on S. aureus MP-12 was over 32 µg/mL each time.

Values taken from US20220177508A1, “C10-Cyclic Substituted 13-Membered Macrolides and Uses Thereof” (Zikani Therapeutics, Inc., priority 2018, published 2022).
